Usually inhibition stands for the change of the read-out against control, counted positive when it falls.

In experiment [1] the target is Macrophage colony-stimulating factor 1 receptor (Homo sapiens) (UniProt P07333). Put plainly: Inhibition of FMS (unknown origin) at 10 uM after 120 mins P33 radiolabeled kinase activity assay.
For experiment [2], the target named is T1, G protein-coupled receptor kinase 3 (Homo sapiens) (UniProt P35626).
T1 sequence (whole entry): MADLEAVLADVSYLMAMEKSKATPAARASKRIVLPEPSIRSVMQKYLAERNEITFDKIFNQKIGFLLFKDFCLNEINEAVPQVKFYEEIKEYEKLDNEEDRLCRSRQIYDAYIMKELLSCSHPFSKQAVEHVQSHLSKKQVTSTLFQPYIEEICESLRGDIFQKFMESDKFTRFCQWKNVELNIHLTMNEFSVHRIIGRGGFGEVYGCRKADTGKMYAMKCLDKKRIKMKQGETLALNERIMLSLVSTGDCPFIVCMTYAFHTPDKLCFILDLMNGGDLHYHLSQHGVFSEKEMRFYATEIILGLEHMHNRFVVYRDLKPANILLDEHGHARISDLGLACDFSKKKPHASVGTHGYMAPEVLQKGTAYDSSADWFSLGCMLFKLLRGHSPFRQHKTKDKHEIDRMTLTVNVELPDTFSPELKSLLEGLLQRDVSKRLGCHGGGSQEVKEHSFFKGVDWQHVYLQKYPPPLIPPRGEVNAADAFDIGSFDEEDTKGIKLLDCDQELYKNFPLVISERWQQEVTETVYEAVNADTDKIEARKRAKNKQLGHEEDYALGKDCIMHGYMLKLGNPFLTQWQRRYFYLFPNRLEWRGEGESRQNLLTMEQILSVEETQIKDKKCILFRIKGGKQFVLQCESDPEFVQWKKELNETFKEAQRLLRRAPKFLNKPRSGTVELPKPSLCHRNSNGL
Put plainly: Inhibition of GRK3 (unknown origin) at 10 uM after 120 mins P33 radiolabeled kinase activity assay.

Experiment [3] concerns the target Serine/threonine-protein kinase PLK1 (Homo sapiens) (UniProt P53350). In words: Inhibition of PLK1 (unknown origin) at 10 uM after 120 mins P33 radiolabeled kinase activity assay.
Experiment [4] deals with Myosin light chain kinase 2, skeletal/cardiac muscle (Homo sapiens) (UniProt Q9H1R3). In words: Inhibition of MLCK2 (unknown origin) at 10 uM after 120 mins P33 radiolabeled kinase activity assay.
Sequence of Myosin light chain kinase 2, skeletal/cardiac muscle (Homo sapiens) (Q9H1R3 whole entry): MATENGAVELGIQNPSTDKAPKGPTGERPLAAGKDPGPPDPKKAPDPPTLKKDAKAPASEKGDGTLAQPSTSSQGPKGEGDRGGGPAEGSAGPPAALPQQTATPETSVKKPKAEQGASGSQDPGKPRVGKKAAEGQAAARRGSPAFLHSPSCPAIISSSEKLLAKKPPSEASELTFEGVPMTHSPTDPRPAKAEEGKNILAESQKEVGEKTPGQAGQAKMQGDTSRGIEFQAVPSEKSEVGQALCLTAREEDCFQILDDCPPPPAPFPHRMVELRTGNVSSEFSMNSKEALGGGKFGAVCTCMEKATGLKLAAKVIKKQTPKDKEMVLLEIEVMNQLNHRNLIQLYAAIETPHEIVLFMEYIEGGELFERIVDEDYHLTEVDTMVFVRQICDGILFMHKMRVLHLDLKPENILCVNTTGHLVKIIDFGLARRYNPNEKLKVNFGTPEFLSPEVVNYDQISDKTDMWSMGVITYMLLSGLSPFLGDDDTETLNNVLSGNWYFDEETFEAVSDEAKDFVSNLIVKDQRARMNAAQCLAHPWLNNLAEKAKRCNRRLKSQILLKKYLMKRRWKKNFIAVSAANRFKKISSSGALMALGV
The target of experiment [5] is T2, Non-receptor tyrosine-protein kinase TNK1 (Homo sapiens) (UniProt Q13470).
T2 sequence (whole entry): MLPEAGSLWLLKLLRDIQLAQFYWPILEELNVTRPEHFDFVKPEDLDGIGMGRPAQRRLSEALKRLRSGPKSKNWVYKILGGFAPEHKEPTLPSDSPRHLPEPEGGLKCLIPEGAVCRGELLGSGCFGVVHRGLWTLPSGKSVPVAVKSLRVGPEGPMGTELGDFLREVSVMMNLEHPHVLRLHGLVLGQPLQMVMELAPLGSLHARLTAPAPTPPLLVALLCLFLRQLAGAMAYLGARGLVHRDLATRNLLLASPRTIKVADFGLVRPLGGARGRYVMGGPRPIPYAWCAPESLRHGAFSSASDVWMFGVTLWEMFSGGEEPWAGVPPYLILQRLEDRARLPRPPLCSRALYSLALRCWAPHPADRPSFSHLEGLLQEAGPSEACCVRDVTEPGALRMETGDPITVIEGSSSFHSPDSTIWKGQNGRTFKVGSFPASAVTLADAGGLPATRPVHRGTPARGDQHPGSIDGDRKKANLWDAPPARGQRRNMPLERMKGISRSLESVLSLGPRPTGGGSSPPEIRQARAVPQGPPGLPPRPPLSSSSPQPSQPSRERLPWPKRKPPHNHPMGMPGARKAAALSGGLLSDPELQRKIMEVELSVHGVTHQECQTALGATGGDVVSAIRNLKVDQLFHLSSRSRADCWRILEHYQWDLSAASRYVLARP
In words: Inhibition of TNK1 (unknown origin) at 10 uM after 120 mins P33 radiolabeled kinase activity assay.

Experiment [6] addresses T3, Serine/threonine-protein kinase ULK3 (Homo sapiens) (UniProt Q6PHR2).
T3 sequence (whole entry): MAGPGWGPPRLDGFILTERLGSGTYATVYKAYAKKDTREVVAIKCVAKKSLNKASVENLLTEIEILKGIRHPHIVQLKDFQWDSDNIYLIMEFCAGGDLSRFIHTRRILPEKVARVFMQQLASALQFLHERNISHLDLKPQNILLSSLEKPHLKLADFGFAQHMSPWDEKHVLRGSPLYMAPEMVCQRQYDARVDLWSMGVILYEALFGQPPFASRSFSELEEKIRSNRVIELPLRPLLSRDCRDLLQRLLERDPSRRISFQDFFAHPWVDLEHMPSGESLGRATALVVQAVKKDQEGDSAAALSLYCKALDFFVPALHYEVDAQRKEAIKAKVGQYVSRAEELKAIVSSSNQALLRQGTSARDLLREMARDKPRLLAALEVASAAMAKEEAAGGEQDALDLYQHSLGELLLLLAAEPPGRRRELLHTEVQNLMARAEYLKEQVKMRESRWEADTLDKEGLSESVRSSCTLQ
In words: Inhibition of ULK3 (unknown origin) at 10 uM after 120 mins P33 radiolabeled kinase activity assay.

Experiment [7] addresses CDK9/cyclin T1 (Homo sapiens) (UniProt O60563+P50750). Put plainly: Inhibition of CDK9/cyclin T1 (unknown origin) at 10 uM after 120 mins P33 radiolabeled kinase activity assay. The class given is protein-complex assay.
In experiment [8] the target is Casein kinase I isoform gamma-1 (Homo sapiens) (UniProt Q9HCP0). In words: Inhibition of CK1gamma1 (unknown origin) at 10 uM after 120 mins P33 radiolabeled kinase activity assay.
Sequence of Casein kinase I isoform gamma-1 (Homo sapiens) (Q9HCP0 whole entry, looked up, canonical isoform): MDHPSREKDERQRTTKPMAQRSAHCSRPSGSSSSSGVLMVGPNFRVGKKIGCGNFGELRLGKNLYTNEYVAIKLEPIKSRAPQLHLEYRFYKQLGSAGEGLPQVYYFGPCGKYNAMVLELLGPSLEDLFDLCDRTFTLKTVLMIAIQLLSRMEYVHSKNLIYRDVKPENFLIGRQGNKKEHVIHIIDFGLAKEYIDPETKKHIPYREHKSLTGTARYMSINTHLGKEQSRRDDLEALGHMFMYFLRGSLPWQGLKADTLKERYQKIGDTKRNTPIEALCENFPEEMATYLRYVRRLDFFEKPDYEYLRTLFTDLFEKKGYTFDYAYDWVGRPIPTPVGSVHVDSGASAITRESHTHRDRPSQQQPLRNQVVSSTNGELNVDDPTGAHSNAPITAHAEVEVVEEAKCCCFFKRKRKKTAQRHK

Sequence of Serine/threonine-protein kinase PLK1 (Homo sapiens) (P53350 whole entry): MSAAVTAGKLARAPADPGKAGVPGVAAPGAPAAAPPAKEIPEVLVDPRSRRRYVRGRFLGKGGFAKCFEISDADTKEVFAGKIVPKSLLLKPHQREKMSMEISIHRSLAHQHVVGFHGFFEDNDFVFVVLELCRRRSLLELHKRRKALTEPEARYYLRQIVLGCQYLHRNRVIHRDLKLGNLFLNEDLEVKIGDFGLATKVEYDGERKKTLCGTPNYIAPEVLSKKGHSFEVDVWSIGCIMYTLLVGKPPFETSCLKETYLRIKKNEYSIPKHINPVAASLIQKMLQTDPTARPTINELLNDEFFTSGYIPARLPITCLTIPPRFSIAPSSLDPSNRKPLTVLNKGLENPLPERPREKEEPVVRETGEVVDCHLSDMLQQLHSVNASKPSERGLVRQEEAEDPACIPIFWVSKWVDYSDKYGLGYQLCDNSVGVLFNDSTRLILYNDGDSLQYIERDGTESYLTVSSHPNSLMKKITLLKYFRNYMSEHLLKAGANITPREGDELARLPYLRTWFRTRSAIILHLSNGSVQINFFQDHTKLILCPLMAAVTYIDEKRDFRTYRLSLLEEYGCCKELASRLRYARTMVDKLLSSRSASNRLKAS
Sequence of Macrophage colony-stimulating factor 1 receptor (Homo sapiens) (P07333 whole entry): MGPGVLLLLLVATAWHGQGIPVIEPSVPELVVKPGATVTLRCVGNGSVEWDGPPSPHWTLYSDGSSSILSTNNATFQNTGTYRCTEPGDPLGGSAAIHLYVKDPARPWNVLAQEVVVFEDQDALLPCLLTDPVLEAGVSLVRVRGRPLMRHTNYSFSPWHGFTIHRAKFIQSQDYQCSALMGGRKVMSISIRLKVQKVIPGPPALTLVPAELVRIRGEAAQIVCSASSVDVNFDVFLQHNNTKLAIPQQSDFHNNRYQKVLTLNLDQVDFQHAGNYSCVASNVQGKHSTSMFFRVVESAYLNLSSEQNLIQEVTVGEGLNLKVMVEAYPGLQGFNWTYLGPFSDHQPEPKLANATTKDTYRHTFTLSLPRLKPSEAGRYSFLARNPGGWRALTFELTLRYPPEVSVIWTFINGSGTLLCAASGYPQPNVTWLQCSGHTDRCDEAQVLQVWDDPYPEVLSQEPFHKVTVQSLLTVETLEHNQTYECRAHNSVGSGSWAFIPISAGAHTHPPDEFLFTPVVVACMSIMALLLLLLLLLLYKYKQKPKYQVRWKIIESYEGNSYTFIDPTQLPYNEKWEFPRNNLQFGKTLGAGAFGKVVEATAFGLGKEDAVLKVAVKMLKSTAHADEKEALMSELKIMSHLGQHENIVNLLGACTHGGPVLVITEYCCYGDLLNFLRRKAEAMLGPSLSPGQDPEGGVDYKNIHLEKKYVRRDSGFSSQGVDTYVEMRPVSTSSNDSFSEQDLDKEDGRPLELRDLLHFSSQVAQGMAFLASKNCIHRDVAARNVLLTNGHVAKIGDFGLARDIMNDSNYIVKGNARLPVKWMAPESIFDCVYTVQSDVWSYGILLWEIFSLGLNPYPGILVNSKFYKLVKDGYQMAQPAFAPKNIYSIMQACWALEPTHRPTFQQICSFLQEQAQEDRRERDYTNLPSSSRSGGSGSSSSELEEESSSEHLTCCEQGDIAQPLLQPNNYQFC

Consider `CS(=O)(=O)c1cccc(Nc2nccc(-c3sc(N4CCOCC4)nc3-c3cccc(NS(=O)(=O)c4c(F)cccc4F)c3)n2)c1`, for which the inhibition is 43.9% in experiment [1]; -3.43% in experiment [2]; 5.27% in experiment [3]; 30.2% in experiment [4]; 95.2% in experiment [5]; 89.6% in experiment [6]. For the same compound, the inhibition came to 25.4% in experiment [7] and 35.1% in experiment [8].

As for `CC(C)(C)c1cc(NC(=O)Nc2ccc(Oc3ccncc3)cc2)no1`, the inhibition is 98.2% in experiment [1]; -2.07% in experiment [2]; 1.09% in experiment [3]; 53.2% in experiment [4]; 89% in experiment [5]; 31.7% in experiment [6]. Besides, the inhibition in experiment [7] worked out at 78.7%; in experiment [8], 6.78%.

Consider `COCCNC(=O)c1ccc2c(c1)nc(-c1cnc(-c3ccc(Cl)cc3)[nH]1)n2CCOC`, for which the inhibition in experiment [1] was 5.32%; in experiment [2] it was -0.61%; in experiment [3] it was -0.52%; in experiment [4] it was 12.1%; in experiment [5], 22.5%; in experiment [6] it was -5.07%. Further, the inhibition in experiment [7] turned out to be 5.79%; in experiment [8], 7.23%.

Values taken from ChEMBL document CHEMBL3627608, “Crystal structures of human RIP2 kinase catalytic domain complexed with ATP-competitive inhibitors: Foundations for understanding inhibitor selectivity” (Bioorg Med Chem, 2015).
